Key:
MCF7 cells = experiment: Multiplexed cell number, β-gal and TUNEL in MCF7; assay type: cell-based, human; settings: 0.125 µM or 0.5 µM, 1-5 DT
Experimental: The viable cell number was determined by PI staining, the % of β-gal positive cells was determined using an antibody to β-gal, and the % of Tunel positive cells was determined by the incorporation of labelled dUTP. The data are plotted as the mean (+/- SD) of 2 experiments for CDK4 and CDK6 inhibitor treatment, and the mean of 6 experiments (+/- SD) for untreated samples. The duration of treatment is plotted along the x-axis in doubling times (DT) for MCF7 cells.
After treatment, cells were fixed, washed with PBS, permeabilized and β-gal was detected using anti-β-galactosidase antibody; for multiplexed assays, TUNEL staining was carried out using Roche TUNEL reagents as indicated above. Nuclei were also stained with PI for total cell counting. Plates were read in an Acumen Explorer Ex3 (TTP Labtech) and raw data were analyzed with Cellista software. Outputs were expressed as percentages of each identified subpopulation 1) positive β-gal, and 2) total cell number. The percentages of β-gal positive cells, TUNEL positive cells, and cell numbers were plotted in Microsoft Excel.

[1] = system: HR+ and HR- breast cancer cell lines; experiment: Proliferation after washouts (EdU Click-iT) in breast cancer lines; assay type: cell-based, human; settings: HR+ versus HR- breast cancer cell lines; exposure 2 hr, 24 hr or 72 hrs followed by washout
Experimental: Images were SA-β-galactosidase immunocytochemical labeling taken by fluorescent microscopy using a Leica DMiL. […] SA-β-gal Cell samples were lysed after treatment with expression was determined using the Senescence Cells 100 μL lysis buffer and transferred to a 96-well plate. Histochemical Staining Kit (Sigma, CS0030) following 30 μL of each sample were transferred into deep well the vendor 's manual. Images were taken at 100x by bright plates using TECAN-EVO Workstation. Samples were field microscopy (Leica DMiL). treated for derivatization of the metabolites of interest and internal standards. For this, 50 μL of derivatization reagent Proliferation studies after washouts (EdU Click- and 80 μL of internal standard (IS, SupplementaryTable iT®) 1), were added with multidrop, plates were vortexed for 5 mins and let sit for one hour at 4 °C. The IS used were the Cells were plated onto poly-D-lysine D or 13C-labeled commercial analogues of nine of the ten coated 96-well plates at a density of 2,000-6,000 metabolites, prepared at 25 μM in water (Supplementary viable cells per well, and treated with abemaciblib or Table 1). The derivatization reagents (from Sigma), […] washout schedule shown on Supplementary Figure 1A. […] EdU Samples were analyzed by LC-MS/MS under the detection was performed using the Click-iT High Content conditions described below. […] Cell images were captured using a Cellomics Arrayscan VTI and analyzed Analysis of the derivatized-extracted samples with the Target Activation bio-application V.3 reading in 4 was carried out with an Agilent 6460 Triple Quadrupole channels at a magnification of 10X. […] The software relative levels and sub-cellular localization of EdU were for data collection and treatment was Agilent Masshunter determined through the respective intensities and locations Workstation. Mobile phases for chromatography were: of Alexa-488 fluorescence. mobile phase A: formic acid (5 mM) and ammonium formate (10 mM) in water; mobile phase B: acetonitrile. […]

| Structure (SMILES) | TUNEL staining (MCF7 cells) | percentage of cells with β-gal staining compared with abemaciclib (MCF7 cells) | DNA synthesis / proliferation as measured by EdU incorporation [1] |
| --- | --- | --- | --- |
| CN(C)C(=O)c1cc2cnc(Nc3ccc(N4CCNCC4)cn3)nc2n1C1CCCC1 [ribociclib] | only minor increases in TUNEL staining were observed and only after longer treatment times | lower |  |
| CC(=O)c1c(C)c2cnc(Nc3ccc(N4CCNCC4)cn3)nc2n(C2CCCC2)c1=O [palbociclib] | only minor increases in TUNEL staining were observed and only after longer treatment times | lower | decrease in proliferation preferentially for HR+ cell lines; however, this effect was only observed after longer treatment times |

— article PMC5642494 (Oncotarget, 2017)
